In PubChem BioAssay (NCI) one finds TGI and GI50 data, which are given here for ten molecules.

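Cultured in 96-well plates, cells were exposed to test compound for 48 hours across five concentrations. The concentration for 50% growth inhibition is given as GI50. TGI denotes the concentration required for complete inhibition of growth.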

Some test systems named below: CCRF-CEM leukemia; HCT-15 colon; HOP-62 NSCLC; HT29 colon; M14 melanoma; NCI-H460 lung; SK-MEL-2 melanoma; SK-MEL-5 melanoma; SN12C renal; SNB-19 CNS; SW-620 colon; TK-10 renal; UACC-62 melanoma; HL-60(TB) leukemia.
Holding throughout (test): NCI anticancer screen, dose series, 48 h

In the case of `Cc1ccc(S(=O)(=O)c2ccc(C)cc2[N+](=O)[O-])c([N+](=O)[O-])c1`, the TGI with CCRF-CEM leukemia, in the assay with HCT-15 colon, with HOP-62 NSCLC, with HT29 colon, with M14 melanoma and with NCI-H460 lung was greater than 100 µM each time. Moreover, the TGI in the assay on SK-MEL-2 melanoma, in the assay with SK-MEL-5 melanoma, in the assay on SN12C renal, in the assay with SNB-19 CNS, in the assay with SW-620 colon and in the assay on TK-10 renal was greater than 100 µM throughout. In the assay on UACC-62 melanoma, this molecule came in with a TGI greater than 100 µM.
Consider `CCOC(=O)/C(C1=NCCN1C)=C(\O)c1ccccc1`, for which the TGI in the assay on CCRF-CEM leukemia, in the assay on HCT-15 colon, with HL-60(TB) leukemia, with HOP-62 NSCLC, with HT29 colon and in the assay with M14 melanoma was greater than 100 µM each time. For the same molecule, the TGI with NCI-H460 lung, with SK-MEL-2 melanoma, in the assay on SK-MEL-5 melanoma, with SN12C renal, with SNB-19 CNS and with SW-620 colon was greater than 100 µM throughout. For the same molecule, in the assay with UACC-62 melanoma, the TGI is greater than 100 µM.
Regarding `N#Cc1ccc(C2OCC3CC=CCC3CO2)cc1` (stereo not drawn), the TGI is greater than 100 µM in the assay on CCRF-CEM leukemia; greater than 100 µM in the assay with HCT-15 colon; 94.9 µM in the assay with HL-60(TB) leukemia; greater than 100 µM in the assay with HOP-62 NSCLC; greater than 100 µM in the assay with HT29 colon; greater than 100 µM in the assay on M14 melanoma. In addition, the TGI in the assay with NCI-H460 lung was greater than 100 µM; in the assay with SK-MEL-2 melanoma, greater than 100 µM; with SK-MEL-5 melanoma it was 49 µM; in the assay on SN12C renal, greater than 100 µM; in the assay on SNB-19 CNS, greater than 100 µM; with SW-620 colon it was greater than 100 µM. In the assay on UACC-62 melanoma, the TGI is greater than 100 µM.
`N#CCCC(C#N)(C#N)CCC#N`: the TGI with HCT-15 colon, with HL-60(TB) leukemia, with HOP-62 NSCLC, in the assay with HT29 colon, in the assay with M14 melanoma and in the assay with NCI-H460 lung was greater than 100 µM each time. In addition, the TGI with SK-MEL-5 melanoma, in the assay on SN12C renal, in the assay on SNB-19 CNS, with SW-620 colon, in the assay with TK-10 renal and in the assay on UACC-62 melanoma was greater than 100 µM in each case.
Take `O=c1cccccc1[O-].O=c1cccccc1[O-].O=c1cccccc1[O-].[Nd+3]`: the TGI in the assay with CCRF-CEM leukemia is greater than 100 µM; in the assay with HCT-15 colon it was greater than 100 µM; in the assay on HL-60(TB) leukemia it was greater than 100 µM; in the assay with HOP-62 NSCLC it was 95.3 µM; in the assay with HT29 colon, greater than 100 µM; with M14 melanoma, 87 µM. Further, the TGI was greater than 100 µM in the assay with NCI-H460 lung; 97.3 µM in the assay on SK-MEL-2 melanoma; greater than 100 µM in the assay with SK-MEL-5 melanoma; greater than 100 µM in the assay with SN12C renal; greater than 100 µM in the assay with SNB-19 CNS; greater than 100 µM in the assay with SW-620 colon. Moreover, the TGI in the assay with TK-10 renal was greater than 100 µM; in the assay on UACC-62 melanoma, 88 µM. Further, the figures for the GI50 with HOP-62 NSCLC and with SN12C renal were 32 µM and 35.6 µM, respectively.
On to `CC1=C2CC[C@@]3(C)C(=CCC3O)C2(C)CCC1=O` (stereo partly drawn), for which the TGI in the assay with CCRF-CEM leukemia, in the assay on HCT-15 colon, in the assay on HL-60(TB) leukemia, in the assay on HOP-62 NSCLC, in the assay on HT29 colon and with M14 melanoma was greater than 100 µM throughout. For the same molecule, the TGI with NCI-H460 lung, in the assay with SK-MEL-5 melanoma, in the assay with SN12C renal, in the assay on SNB-19 CNS, in the assay on SW-620 colon and in the assay with TK-10 renal was greater than 100 µM in each case. Also, in the assay with UACC-62 melanoma, the TGI is greater than 100 µM.
In the case of `c1ccc2cc(C3NCCc4[nH]cnc43)ccc2c1` (stereo not drawn), the TGI is 91.6 µM in the assay on CCRF-CEM leukemia; greater than 100 µM with HCT-15 colon; greater than 100 µM in the assay on HOP-62 NSCLC; greater than 100 µM in the assay on HT29 colon; greater than 100 µM with M14 melanoma; greater than 100 µM in the assay on NCI-H460 lung. The TGI with SK-MEL-2 melanoma is greater than 100 µM; in the assay on SK-MEL-5 melanoma, 45.3 µM; with SN12C renal, greater than 100 µM; with SW-620 colon, greater than 100 µM; in the assay on TK-10 renal, 82.1 µM; with UACC-62 melanoma, greater than 100 µM.
`C#CN1C(=O)c2c(c(-c3ccccc3)c(-c3ccc(Oc4ccc(-c5c(-c6ccccc6)c6c(c(-c7ccccc7)c5-c5ccccc5)C(=O)N(C#C)C6=O)cc4)cc3)c(-c3ccccc3)c2-c2ccccc2)C1=O`: the TGI in the assay with CCRF-CEM leukemia, in the assay with HCT-15 colon, with HL-60(TB) leukemia, in the assay with HOP-62 NSCLC, in the assay with HT29 colon and with M14 melanoma was greater than 100 µM in each case. Further, the TGI with NCI-H460 lung, in the assay with SK-MEL-2 melanoma, in the assay on SK-MEL-5 melanoma, with SN12C renal, in the assay with SNB-19 CNS and with SW-620 colon was greater than 100 µM throughout. Besides, the TGI in the assay with TK-10 renal and in the assay with UACC-62 melanoma was greater than 100 µM throughout.
In the case of `COc1cc(C2C(C(=O)NCc3ccccc3)=C(C)NC(C)=C2C(=O)NCc2ccccc2)ccc1O`, the TGI in the assay with CCRF-CEM leukemia was 98.3 µM; in the assay on HCT-15 colon it was greater than 100 µM; in the assay on HL-60(TB) leukemia, 66.5 µM; with HT29 colon it was 38 µM; in the assay on M14 melanoma, greater than 100 µM; with NCI-H460 lung it was greater than 100 µM. In addition, the TGI in the assay with SK-MEL-2 melanoma is 61.2 µM; with SK-MEL-5 melanoma, greater than 100 µM; with SN12C renal it was greater than 100 µM; in the assay on SNB-19 CNS, greater than 100 µM; in the assay on SW-620 colon, greater than 100 µM; with TK-10 renal, greater than 100 µM. In the assay on UACC-62 melanoma, this molecule had a TGI greater than 100 µM.
With `CN1CCCS/C1=C1/SC(=S)N(c2ccccc2)C1=O`, the TGI in the assay with CCRF-CEM leukemia, in the assay with HCT-15 colon, in the assay on HL-60(TB) leukemia, in the assay on HOP-62 NSCLC, in the assay on HT29 colon and with M14 melanoma was greater than 100 µM each time. Moreover, the TGI in the assay on NCI-H460 lung, in the assay with SK-MEL-2 melanoma, in the assay on SK-MEL-5 melanoma, in the assay with SN12C renal, in the assay on SNB-19 CNS and in the assay on SW-620 colon was greater than 100 µM throughout. The TGI in the assay on TK-10 renal and in the assay with UACC-62 melanoma was greater than 100 µM in each case.
